The source of these data is US20120244192A1, “SUSTAINED RELEASE FORMULATIONS OF PEPTIDOMIMETIC DRUGS AND USES THEREOF” (priority 2009, published 2012).

In experiment [1] the target is T1, C5aR (Mus musculus, UniProt P30993).
T1 construct: from tissue; host or cells: live mice (kidney allograft recipients, in vivo)
T1 sequence (P30993 1-351): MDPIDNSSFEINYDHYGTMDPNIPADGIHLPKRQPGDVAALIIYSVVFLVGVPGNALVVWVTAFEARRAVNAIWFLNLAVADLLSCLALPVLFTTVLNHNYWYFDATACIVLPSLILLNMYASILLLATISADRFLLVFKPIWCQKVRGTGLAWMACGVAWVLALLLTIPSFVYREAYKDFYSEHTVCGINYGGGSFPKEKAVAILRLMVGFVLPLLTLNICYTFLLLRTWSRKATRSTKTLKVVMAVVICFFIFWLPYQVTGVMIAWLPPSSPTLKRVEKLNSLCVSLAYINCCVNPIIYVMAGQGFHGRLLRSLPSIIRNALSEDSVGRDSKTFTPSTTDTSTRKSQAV
Nature of the experiment: Allogenic kidney transplantation model (ischemia reperfusion injury). The class given is in vivo, mice. The source says:
(Arumugam, T. V., Shiels I. A., Strachan, A. J., et al (2003) A small molecule C5a receptor antagonist protects kidneys from ischemia/reperfusion injury in rats. Kidney Int 63; 134-142, De Vries B, Matthijsen R A, Wolfs T G et al (2003a) Inhibition of complement factor C5 protects against renal ischemia-reperfusion injury: inhibition of late apoptosis and inflammation Transplantation 75; 375-382, De Vries B, Kohl J, Leclercq W K et al (2003b) Complement factor C5a mediates renal ischemia-reperfusion injury independent of neutrophils. J Immunol 170; 3883-3889.) JPE1375 liquid formulation is active in an allogenic transplantation model in mice. In this model rejection of the transplant is based on an ischemia reperfusion injury with measures of animal/graft survival and renal function. Blockade of C5aR with JPE1375 liquid formulation after transplantation prolonged survival of the animals from days to greater than 12 weeks compared to controls. C5aR blockade with JPE1375 microparticle sustained release formulation is expected to provide similar benefit after a single dose.

Experiment [2] addresses T2, C5a receptor (Mus musculus, UniProt P30993).
T2 construct: from tissue; host or cells: live mice (peritoneal neutrophil chemotaxis, in vivo)
T2 sequence (P30993 1-351): T1 sequence (P30993 1-351)
Put plainly: Reverse Passive Arthus Reaction model, immune complex peritonitis. Conditions: intraperitoneal injection of 1 mg/kg as a liquid formulation. The class given is in vivo, mice. The source says: C5a is a potent chemokine, inducing polymorphic nucleated granulocyte (neutrophils) and monocyte/macrophage chemotaxis. In the Reverse Passive Arthus Reaction model in mice, an immune complex peritonitis is induced by the intravenous administration of ovalbumin followed by intraperitoneal administration of an anti-ovalbumin antiserum, which leads to the formation of antigen-antibody complexes and subsequent activation of the complement system, including generation of C5a [Heller et al., 1999]. (Heller et al (1999) J Immunol 163; 985-994).

In the case of “Hoo-Phe-Orn-Pro-hle-Pff-Phe-NH2 [JPE1375]”, in experiment [1] (after transplantation, prolonged from days, compared to controls), the “survival of the animals” value was “greater than 12 weeks”. For the same substance, the “activity in allogenic transplantation model” value in experiment [1] (liquid formulation) is given as “active”. For the same substance, the “inhibition of C5a receptor mediated chemotaxis” value in experiment [2] is “high in vivo potency”.
